Reference: patent US8778912B2, “Composition of dialysis liquid comprising crystallisation inhibitor substances” (Universitat de les Illes Balears, priority 2008, dated 2014)

Assays:
[1] = Dialysis of artificial plasma with 5 mM etidronate against dialysing liquid without etidronate; type: in vitro ADME; settings: after a 20-hour period, pH 7.4
Description: (§1) An artificial plasma was prepared with 5 mM of etidronate, regulating the ionic strength with 0.15 M NaCl. 25 ml of this solution were dialysed for 20 hours against a 1-l volume of a 0.15 M NaCl solution without etidronate (dialysing liquid model). The pH of both solutions was adjusted to 7.4 using bicarbonate buffer.
(§2) 5-ml aliquots of the dialysing liquid were collected at times 0, 1, 3, 6 and 20 hours, and the quantity of etidronate was determined in each of them. Moreover, the concentration of etidronate in the artificial plasma was determined at times 0 and 20 hours.

[2] = Dialysis of artificial plasma with 5 mM etidronate against dialysing liquid with the same concentration of etidronate; type: in vitro ADME; settings: 20 hours dialysis; 5 mM etidronate in both plasma and dialysing liquid, pH 7.4
Description: as §1, with “with the same concentration of” for “without”, “as the plasma.” for “(dialysing liquid model).”
as §2

[3] = Dialysis of artificial plasma with 1 mM etidronate against dialysing liquid with 5 times greater etidronate concentration; type: in vitro ADME
Description: as §1, with “with 1” for “with 5”, “solution with a concentration of” for “solution without”, “etidronate 5 times greater than that of the plasma.” for “etidronate (dialysing liquid model).”
as §2

[4] = Dialysis of artificial plasma with 1.5 mM phytate against dialysing liquid without phytate; type: in vitro ADME; settings: after a 20-hour period, pH 7.4
Description: An artificial plasma (liquid with a composition similar to that of plasma) was prepared with 1.5 mM phytate, regulating the ionic strength with 0.15 M NaCl. 25 ml of this solution were dialysed for 20 hours against a 1-l volume of a 0.15 M NaCl solution without phytate (dialysing liquid model). The pH of both solutions was adjusted to 7.4 using bicarbonate buffer. 5-ml aliquots of the dialysing liquid were collected at times 0, 1, 3, 6 and 20 hours, and the quantity of phytate in each of them was determined. Moreover, the concentration of phytate in the artificial plasma was determined at times 0 and 20 hours.

[5] = Dialysis of artificial plasma with 1.5 mM phytate against dialysing liquid with the same concentration of phytate; type: in vitro ADME; settings: 20 hours dialysis; 1.5 mM phytate in both plasma and dialysing liquid, pH 7.4
Description: (§3) An artificial plasma was prepared with 1.5 mM of phytate, regulating the ionic strength with 0.15 M NaCl. 25 ml of this solution were dialysed for 20 hours against a 1-l volume of a 0.15 M NaCl solution with the same concentration of phytate as the plasma. The pH of both solutions was adjusted to 7.4 using bicarbonate buffer. 5-ml aliquots of the dialysing liquid were collected at times 0, 1, 3, 6 and 20 hours, and the quantity of phytate was determined in each of them. Moreover, the concentration of phytate in the artificial plasma was determined at times 0 and 20 hours.

[6] = Dialysis of artificial plasma with 300 μM phytate against dialysing liquid with 5 times greater phytate concentration; type: in vitro ADME
Description: as §3, with “with 300 μM” for “with 1.5 mM”, “with a” for “with the same”, “phytate 5 times greater than that of” for “phytate as”

[7] = Intravenous administration to rats on a diet without phytate; urinary and plasma phytate; type: in vivo, male Wistar rats; settings: treated group, 3 intravenous doses of 0.61 mmol/kg (400 mg/kg) 12 hours apart
Description: 6 male Wistar rats approximately 250 g in weight were acclimated from 7 dias in the animal house (T=[…] and humidity=60±5%) with 12:12-hour light-darkness cycles. The rats were housed in Plexiglas cages, with one animal per cage, and fed with food and drink ad libitum.
Following the acclimation period, the animals were randomly divided into two groups with 3 rats each, a control group (with a diet without phytate, thereby simulating a post-dialysis physiological condition) and a treated group, which received 3 intravenous doses of 0.61 mmol/kg (400 mg/kg) separated by 12-hour periods. Following the last administration, 24-hour urine samples were collected in order to determine the phytate and, subsequently, the animals were anaesthesised and blood samples were collected.
The procedures used in this experiment were performed in accordance with Directive 86/609/EEC regarding the protection of animals used for experimental and scientific purposes.

| quantity of etidronate in the dialysis solution, as share of the initial quantity in the artificial plasma [1] [%] | variation in the concentration of etidronate in the plasma and the dialysing liquid [2] | change of plasma concentration of etidronate (in words) ([3]; 20-hour period, dialysis liquid with etidronate concentration greater than that of the plasma) | etidronate from the dialysis liquid that enters into the artificial plasma ([3]; 20 hours dialysis, plasma 1 mM etidronate, dialysis liquid 5 times greater, pH 7.4) | increase of the concentration of etidronate in the artificial plasma ([3]; 20 hours dialysis, plasma 1 mM etidronate, dialysis liquid 5 times greater, from ratio of initial volumes and concentrations) [%] | quantity of phytate in the dialysis solution, as share of the initial quantity in the artificial plasma [4] [%] | variation in the concentration of phytate in the plasma and the dialysing liquid [5] | change of plasma concentration of phytate (in words) ([6]; 20-hour period, dialysis liquid with phytate concentration greater than that of the plasma) | phytate from the dialysis liquid that enters into the artificial plasma ([6]; 20 hours dialysis, plasma 300 μM phytate, dialysis liquid 5 times greater, pH 7.4) | increase of the concentration of phytate in the artificial plasma ([6]; 20 hours dialysis, plasma 300 μM phytate, dialysis liquid 5 times greater, from ratio of initial volumes and concentrations) [%] | concentration at 24 h ([7]; male, Wistar, rat, plasma, blood 24 hours after last administration, read-out: plasma level of phytate) [ng/mL] | urinary excretion of phytate ([7]; 24-hour urine after last administration) [µg] | SMILES |
| --- | --- | --- | --- | --- | --- | --- | --- | --- | --- | --- | --- | --- |
| 95.6 | no variations | increase the plasma concentration | up to 1.65% | 330 |  |  |  |  |  |  |  | CC(O)(P(=O)(O)O)P(=O)(O)O [etidronate, etidronic acid] |
|  |  |  |  |  | 40 | no variations | increase the plasma concentration | up to 0.75% | 140 | 1000 | 72 ± 10 | O=P(O)(O)O[C@H]1[C@H](OP(=O)(O)O)[C@@H](OP(=O)(O)O)[C@H](OP(=O)(O)O)[C@@H](OP(=O)(O)O)[C@H]1OP(=O)(O)O [phytate, myo-inositol hexaphosphate] |
